Key:
[1] = tested on: tomato (Solanum lycopersicum) cv Moneymaker; assay: Growth assay of tomato seedlings from seeds primed with IR-PRN; type: in vivo
Experimental: Seeds of tomato (Solanum lycopersicum) cv Moneymaker were primed with a priming solution containing 25% PEG without (control) or with IR-PRN.
The seeds were sown in randomly placed small tagged pots containing potting mixture, in a glasshouse at a night and day temperature of 15-18° C. and 22-27° C., respectively. Plant height, weight and dry weight were measured when the plant reached 3-5 true leaves. Typically the seedlings were 4-5 weeks old.

[2] = tested on: Rhizoctonia solani; assay: Bioassay for inhibition of Rhizoctonia solani in vitro; type: cell-based; settings: plant-extracted, HPLC-purified PRN; 28° C., 3 days
Experimental: R. solani was cultured on potato dextrose agar at 28° C. A disk (30 mm in diameter) of R. solani-containing agar was transferred to another Petri dish containing potato dextrose agar and 10 μl of HPLC elution buffer (negative control), 10 μl of various plant extracts, or 10 μl containing 0.2 mg of synthetic PRN in elution buffer (Sigma, positive control). Inhibition of fungal growth was determined after incubation at 28° C. for 3 days.

[3] = tested on: R. solani; assay: Assay for R. solani resistance (damping-off disease) of tomato plants; type: in vivo; settings: control plants wilted within 2 weeks
Experimental: Roots of tomato (Solanum lycopersicum) seedlings were immersed in a water solution of IL-60-BS and IR-PRN or IR-PRN-GFP (1 μg/plantlet) until the entire solution was sucked up by the plants. The plants were then potted and kept in the greenhouse at 24° C. Tomato seedlings, 2 weeks after application of IL-60-BS and IR-PRN, were transferred to pots with 0.5 kg of soil mixed with 0.5 g of R. solani mycelium. Control plants (not carrying PRN) were similarly treated. Plants were kept for 2 to 3 weeks at 24° C. until symptom appearance.

[4] = plant expressing PRN, seedlings at 3-5 true leaves, 4-5 weeks old

O=[N+]([O-])c1c(Cl)cccc1-c1c[nH]cc1Cl [PRN, 3-chloro-4-(2′-nitro-3′-chlorophenyl)-pyrrole]
Dry weight [1, 4]: 3.6 gr
Dry weight (% of fresh weight) [1, 4]: 42.7 % of fresh weight
Fresh weight [1, 4]: 9.2 gr
Height [1, 4]: 11 cm
Growth Enhancement (%), Dry weight ([1]; relative to control plant): 276.9%
Growth Enhancement (%), Dry weight (% of fresh weight) ([1]; relative to control plant): 159.9%
Growth Enhancement (%), Fresh weight ([1]; relative to control plant): 191.7%
Growth Enhancement (%), Height ([1]; relative to control plant): 134.1%
Inhibition of growth of R. solani [2]: inhibitory
State of plants in R. solani-infested soil [3]: remained healthy

Reference: US20140325707A1, “GROWTH ENHANCEMENT OF PLANTS” (Yissum Research Development Company of the Hebrew …, priority 2011, published 2014)
